Reference: US20090306133A1, “New Acetyl Coenzyme A Carboxylase (ACC) Inhibitors And Uses In Treatments Of Obesity And Diabetes Mellitus - 087” (ASTRAZENECA AB, priority 2007, published 2009)
pIC50: −log10 of the molar value.

Legend:
[1] = target: Human recombinant Acetyl-CoA Carboxylase 2 (ACC2) (Homo sapiens, UniProt O00763); experiment: Assay Y: ACC2 inhibition, inorganic phosphate (Malachite Green); format: biochemical; conditions: Assay Y: room temperature, 3 hr, 15 min preincubation
Protocol: (§1) Preincubation of 6 μL enzyme together with 0.3 μL compound for 15 min was done before the reaction was initiated by the addition of 4 μL substrate. […] After 3 hr the reaction was stopped by addition of 60 μL of water followed by 30 μL Malachite Green solution. The Malachite Green solution was prepared by mixing 16.4 mL ammonium molybdate solution (7.5%), 1.64 mL Tween (11%) with 82 mL Malachite Green/H2SO4-solution (0.7 g Malachite Green to 1000 mL of 10% (v/v) H2SO4). Plates were left for 10 min at room temperature before reading the absorbance at 670 nm. All compounds were tested in triplicate at 10 different concentrations. Control compound (0, 50 and 100% effect) was included on each plate. […] An IC50 value was derived by non-linear regression curve fitting using the following equation: […]))) where A is the non-specific binding, B is the total binding, C is the IC50 and D is the slope. Saturation binding Kd and Bmax were derived using the equation y=((B1 max*x)/(Kd+x)).

[2] = target: Human recombinant Acetyl-CoA Carboxylase 1 (ACC1) (Homo sapiens, UniProt Q13085); experiment: Assay Y: ACC1 inhibition, inorganic phosphate (Malachite Green); format: biochemical; conditions: Assay Y: room temperature, 3 hr, 15 min preincubation
Protocol: as §1

Human recombinant Acetyl-CoA Carboxylase 2 (ACC2), sequence (O00763 whole entry): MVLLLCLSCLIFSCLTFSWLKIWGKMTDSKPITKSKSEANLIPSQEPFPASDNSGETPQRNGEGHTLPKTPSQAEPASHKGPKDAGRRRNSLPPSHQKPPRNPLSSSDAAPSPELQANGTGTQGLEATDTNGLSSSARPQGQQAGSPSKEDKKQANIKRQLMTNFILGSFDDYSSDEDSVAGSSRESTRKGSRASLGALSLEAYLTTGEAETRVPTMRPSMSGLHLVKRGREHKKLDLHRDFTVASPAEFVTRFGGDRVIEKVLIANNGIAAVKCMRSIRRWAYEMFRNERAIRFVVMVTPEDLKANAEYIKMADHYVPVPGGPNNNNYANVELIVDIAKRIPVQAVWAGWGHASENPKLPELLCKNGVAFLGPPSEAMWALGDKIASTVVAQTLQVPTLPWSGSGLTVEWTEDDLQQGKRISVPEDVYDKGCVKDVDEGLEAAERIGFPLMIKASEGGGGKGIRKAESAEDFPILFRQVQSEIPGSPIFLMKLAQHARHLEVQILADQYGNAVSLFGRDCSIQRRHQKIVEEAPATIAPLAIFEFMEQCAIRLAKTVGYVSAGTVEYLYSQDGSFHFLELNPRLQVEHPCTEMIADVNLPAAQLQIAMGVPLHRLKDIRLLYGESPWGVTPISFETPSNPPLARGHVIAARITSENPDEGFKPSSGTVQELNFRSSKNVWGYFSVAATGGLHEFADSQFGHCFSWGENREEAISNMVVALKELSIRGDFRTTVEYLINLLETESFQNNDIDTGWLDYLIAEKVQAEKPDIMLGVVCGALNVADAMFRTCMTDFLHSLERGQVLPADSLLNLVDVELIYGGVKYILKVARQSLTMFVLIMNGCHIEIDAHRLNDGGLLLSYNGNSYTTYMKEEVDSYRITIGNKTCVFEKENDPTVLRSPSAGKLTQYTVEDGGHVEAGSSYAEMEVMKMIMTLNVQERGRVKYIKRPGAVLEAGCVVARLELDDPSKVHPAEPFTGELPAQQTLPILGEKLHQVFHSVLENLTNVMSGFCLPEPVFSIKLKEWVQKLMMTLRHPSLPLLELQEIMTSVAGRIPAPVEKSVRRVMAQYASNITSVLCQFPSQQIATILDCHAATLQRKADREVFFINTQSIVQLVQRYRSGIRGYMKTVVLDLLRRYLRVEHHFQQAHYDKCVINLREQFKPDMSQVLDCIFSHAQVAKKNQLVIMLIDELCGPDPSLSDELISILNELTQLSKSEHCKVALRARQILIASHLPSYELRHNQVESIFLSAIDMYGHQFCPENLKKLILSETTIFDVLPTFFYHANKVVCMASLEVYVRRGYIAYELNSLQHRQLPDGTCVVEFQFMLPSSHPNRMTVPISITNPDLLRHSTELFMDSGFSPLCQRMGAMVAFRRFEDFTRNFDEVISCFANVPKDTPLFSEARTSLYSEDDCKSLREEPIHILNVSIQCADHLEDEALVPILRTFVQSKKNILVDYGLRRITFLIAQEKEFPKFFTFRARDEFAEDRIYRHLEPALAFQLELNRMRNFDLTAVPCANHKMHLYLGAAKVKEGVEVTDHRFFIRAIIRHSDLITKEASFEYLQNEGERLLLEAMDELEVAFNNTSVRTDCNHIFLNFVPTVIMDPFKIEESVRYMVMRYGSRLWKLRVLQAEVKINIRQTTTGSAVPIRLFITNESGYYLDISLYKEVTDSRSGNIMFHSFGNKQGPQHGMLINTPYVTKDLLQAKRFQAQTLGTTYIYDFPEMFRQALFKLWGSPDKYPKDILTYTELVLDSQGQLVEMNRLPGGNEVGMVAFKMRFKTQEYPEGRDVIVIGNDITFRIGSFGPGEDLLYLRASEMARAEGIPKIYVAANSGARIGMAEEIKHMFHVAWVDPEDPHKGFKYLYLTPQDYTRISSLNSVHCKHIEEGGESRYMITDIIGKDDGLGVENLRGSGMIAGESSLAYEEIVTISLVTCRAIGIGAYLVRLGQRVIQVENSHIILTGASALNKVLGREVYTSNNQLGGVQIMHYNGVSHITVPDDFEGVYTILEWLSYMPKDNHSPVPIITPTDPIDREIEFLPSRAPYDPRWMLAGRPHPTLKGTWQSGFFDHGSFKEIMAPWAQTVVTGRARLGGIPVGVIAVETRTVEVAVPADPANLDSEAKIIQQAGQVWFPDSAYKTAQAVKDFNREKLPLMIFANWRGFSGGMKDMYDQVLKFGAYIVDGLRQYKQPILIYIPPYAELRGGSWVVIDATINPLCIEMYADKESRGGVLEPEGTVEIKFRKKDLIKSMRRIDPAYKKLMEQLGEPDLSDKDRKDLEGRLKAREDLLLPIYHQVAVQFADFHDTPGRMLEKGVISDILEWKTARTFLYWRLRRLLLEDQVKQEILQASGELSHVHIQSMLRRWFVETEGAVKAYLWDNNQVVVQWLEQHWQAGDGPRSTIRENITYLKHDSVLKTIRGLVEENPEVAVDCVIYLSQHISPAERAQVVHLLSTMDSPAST

Row | Compound | pIC50 [1] | pIC50 [2]
1 | COc1cccc(-c2cc(C(=O)NC[C@H]3CC[C@H](CNC(=O)OC(C)(C)C)CC3)c3ccccc3n2)c1 [Example 22, tert-Butyl ({trans-4-[({[2-(3-methoxyphenyl)quinolin-4-yl]carbonyl}amino)-methyl]cyclohexyl}methyl)carbamate] | 6.51 | 6.00
2 | COc1ccccc1-c1cc(C(=O)NC[C@H]2CC[C@H](CNC(=O)OC(C)(C)C)CC2)c2ccccc2n1 [Example 23, tert-Butyl ({trans-4-[({[2-(2-methoxyphenyl)quinolin-4-yl]carbonyl}amino)methyl]-cyclohexyl}methyl)carbamate] | 6.34 | 5.49
3 | CSc1ccc(-c2cc(C(=O)NC[C@H]3CC[C@H](CNC(=O)OC(C)(C)C)CC3)c3ccccc3n2)cc1 [Example 24, tert-Butyl [(trans-4-{[({2-[4-(methylthio)phenyl]quinolin-4-yl}carbonyl)amino]-methyl}cyclohexyl)methyl]carbamate] | 6.31 | 5.87
4 | Cc1nc(C)c(-c2cc(C(=O)NC[C@H]3CC[C@H](CNC(=O)OC(C)(C)C)CC3)c3ccccc3n2)s1 [Example 25, tert-Butyl ({trans-4-[({[2-(2,4-dimethyl-1,3-thiazol-5-yl)quinolin-4-yl]carbonyl}amino)-methyl]cyclohexyl}methyl)carbamate] | 6.85 | 5.77
5 | CCOC(=O)NC[C@H]1CC[C@H](CNC(=O)c2cc(-c3cnccn3)nc3ccccc23)CC1 [Example 26, Ethyl {[trans-4-({[(2-pyrazin-2-ylquinolin-4-yl)carbonyl]amino}methyl)cyclohexyl]-methyl}carbamate] | 5.39 | < 4.70
6 | CCOC(=O)NC[C@H]1CC[C@H](CNC(=O)c2cc(-c3cccc(OC)c3)nc3ccccc23)CC1 [Example 27, Ethyl ({trans-4-[({[2-(3-methoxyphenyl)quinolin-4-yl]carbonyl}amino)methyl]cyclo-hexyl}methyl)carbamate] | 5.93 | 5.44
7 | CCOC(=O)NC[C@H]1CC[C@H](CNC(=O)c2cc(-c3ccc(C)cc3)nc3ccccc23)CC1 [Example 28, Ethyl ({trans-4-[({[2-(4-methylphenyl)quinolin-4-yl]carbonyl}amino)methyl]cyclo-hexyl}methyl)carbamate] | 5.93 | 5.22
8 | CCOC(=O)NC[C@H]1CC[C@H](CNC(=O)c2cc(-c3ccc(SC)cc3)nc3ccccc23)CC1 [Example 29, Ethyl [(trans-4-{[({2-[4-(methylthio)phenyl]quinolin-4-yl}carbonyl)amino]methyl}-cyclohexyl)methyl]carbamate] | 5.90 | 5.39
9 | CCOC(=O)NC[C@H]1CC[C@H](CNC(=O)c2cc(-c3ccc(OCC)cc3)nc3ccccc23)CC1 [Example 30, Ethyl ({trans-4-[({[2-(4-ethoxyphenyl)quinolin-4-yl]carbonyl}amino)methyl]-cyclohexyl}methyl)carbamate] | 5.89 | < 4.70
10 | CCOC(=O)NC[C@H]1CC[C@H](CNC(=O)c2cc(-c3ccccc3OC)nc3ccccc23)CC1 [Example 31, Ethyl ({trans-4-[({[2-(2-methoxyphenyl)quinolin-4-yl]carbonyl}amino)methyl]-cyclohexyl}methyl)carbamate] | 5.45 | < 4.70
11 | CCOC(=O)NC[C@H]1CC[C@H](CNC(=O)c2cc(-c3ccc(Cl)cc3)nc3ccccc23)CC1 [Example 32, Ethyl ({trans-4-[({[2-(4-chlorophenyl)quinolin-4-yl]carbonyl}amino)methyl]cyclo-hexyl}methyl)carbamate] | 5.76 | < 4.70
12 | CC(C)(C)OC(=O)NC[C@H]1CC[C@H](CNC(=O)c2cc(-c3cncnc3)nc3ccccc23)CC1 [Example 33, tert-Butyl {[trans-4-({[(2-pyrimidin-5-ylquinolin-4-yl)carbonyl]amino}methyl)cyclo-hexyl]methyl}carbamate] | 5.94 | 5.45
